Publication PMC8016788 (Clinical Pharmacokinetics, 2021)
Read-outs that look alike come from different tables or passages of the source.

Experiments:
[1] = 10 mg
[2] = clinical; settings: human, plasma, oral, 10 mg
[3] = tested on: patients with non-diabetic kidney disease; settings: primary result of the DIAMOND trial; cited from earlier work
[4] = patients with type 2 diabetes and chronic kidney disease; model of van der Walt et al.; cited from earlier work

CCOc1ccc(Cc2cc([C@@H]3O[C@H](CO)[C@@H](O)[C@H](O)[C@H]3O)ccc2Cl)cc1 [dapagliflozin]
Predicted median AUC0–inf ([1]; participants of 50 kg with mGFR 50 mL/min/1.73 m^2): 1100.3 (1016.1–1204.1) ng h/mL | Predicted median AUC0–inf ([1]; participants of 70 kg with mGFR 15 mL/min/1.73 m^2): 1566.1 (1348.4–1855.4) ng h/mL | Predicted median AUC0–inf ([1]; participants of 70 kg with mGFR 90 mL/min/1.73 m^2): 539.2 (483.5–600.4) ng h/mL | Predicted median AUC0–inf ([1]; participants of 150 kg with mGFR 50 mL/min/1.73 m^2): 483.0 (445.5–527.8) ng h/mL | AUC(0-inf) [2]: 741 ng·h/mL | Vd/F [2]: 44.9 L | Effect on proteinuria in the DIAMOND trial [3]: did not decrease proteinuria | Apparent clearance [4]: approximately 10.5 L/h
